In US4132778A, “Antibiotic A-32887” (Eli Lilly and Company, priority 1977, dated 1979):

Experiments:
[1] = tested on: Pasteurella multocida (bovine); test: Standard agar-dilution assay (MIC), Table VI; type: cell-based; settings: Na-K salt
Source text: Antibiotic A-32887 inhibits the growth of pathogenic bacteria, especially gram-positive bacteria. Table VI summarizes the minimal inhibitory concentrations (MIC), as measured by standard agar-dilution assays, at which A-32887 (Na-K salt) inhibits certain bacteria.

Eubacterium aerofaciens = test: Standard agar-dilution assay, anaerobic bacteria, Table IX; type: cell-based; settings: 24-hour incubation
[2] = tested on: Bacteriodes melaninogenicus 1856/28; test: as above; type: cell-based; settings: 24-hour incubation
Protocol: (§1) Table IX summarizes the MIC's at which A-32887 (Na-K salt) inhibits various anaerobic bacteria, as determined by standard agar-dilution assay. End points were read after 24-hour incubation.

Clostridium septicum = test: as above; type: cell-based; settings: 24-hour incubation
Protocol: as §1

Actinomyces israelii = test: as above; type: cell-based; settings: 24-hour incubation
Protocol: as §1

[3] = tested on: Bacteriodes fragilis ssp fragilis 111; test: as above; type: cell-based; settings: 24-hour incubation
Protocol: as §1

Bacteriodes vulgatis = test: as above; type: cell-based; settings: 24-hour incubation
Protocol: as §1

[4] = tested on: Peptostreptococcus anaerobius; test: as above; type: cell-based; settings: 24-hour incubation
Mexican bean beetle = test: Insecticidal activity; type: in vivo; settings: 1000 ppm
Source text: (§2) In another aspect, the A-32887 compounds are useful as insecticides. For example, A-32887 (Na-K salt) is active against insects such as Mexican bean beetle, Southern armyworm and housefly when applied at a rate of 1000 ppm.

housefly = test: Insecticidal activity; type: in vivo; settings: 1000 ppm
Source text: as §2

Southern armyworm = test: Insecticidal activity; type: in vivo; settings: 1000 ppm
Source text: as §2

[5] = tested on: Streptococcus sp. (Group D); test: Conventional disc-diffusion method, Table VII; type: cell-based
Source text: (§3) The activity of A-32887 (Na-K salt) against illustrative bacteria, as measured by the conventional disc-diffusion method, is summarized in Table VI.

[6] = tested on: Staphylococcus aureus 3055; test: Conventional disc-diffusion method, Table VII; type: cell-based
Source text: as §3

Diplococcus pneumoniae = test: Conventional disc-diffusion method, Table VII; type: cell-based
Source text: as §3

[7] = tested on: Streptococcus pyogenes (Group A); test: Conventional disc-diffusion method, Table VII; type: cell-based
Source text: as §3

[8] = tested on: Peptococcus asaccharolyticus; test: Standard agar-dilution assay, anaerobic bacteria, Table IX; type: cell-based; settings: 24-hour incubation
[9] = tested on: Staphylococcus aureus 3074 (Penicillin G-resistant); test: Conventional disc-diffusion method, Table VII; type: cell-based
Source text: as §3
*Penicillin G-resistant

[10] = tested on: ruminal propionate concentration; test: Ruminal VFA in fistulated feed-lot cattle (Table XV); type: in vivo; settings: 30 g/ton, 24 days
Source text: The procedure used in testing cattle in this manner is also described in Raun's U.S. Pat. No. 3,839,557 (see Example 9). Table XV summarizes the results of such a test with A-32887 (Na-K salt) wherein five feed-lot cattle weighing approximately 425 kg. were in each group and the mean percent increases in ruminal propionate concentration were averaged over four analyses in a 24-day treatment period.

Clostridium perfringens = type: cell-based; settings: 24-hour incubation
[11] = tested on: Peptostreptococcus intermedius; test: Standard agar-dilution assay, anaerobic bacteria, Table IX; type: cell-based; settings: 24-hour incubation
[12] = tested on: E. tenella, E. maxima and E. acervulina; test: Anticoccidial feeding test in chicks, E. tenella, E. maxima and E. acervulina (Table XIII); settings: for Percent Mortality: due to coccidiosis; for Percent Weight Gain: per survivor
Bacteriodes corrodens = test: Standard agar-dilution assay, anaerobic bacteria, Table IX; type: cell-based; settings: 24-hour incubation
coccidia = test: Feeding experiments in chicks challenged with coccidia; type: in vivo, Eimeria species; chicks; settings: levels as low as 40 ppm in feed of young chickens
Peptococcus prevoti = test: Standard agar-dilution assay, anaerobic bacteria, Table IX; type: cell-based; settings: 24-hour incubation
[13] = tested on: Bacteriodes fragilis ssp fragilis 1936B; test: as above; type: cell-based; settings: 24-hour incubation
[14] = tested on: Bacteriodes melaninogenicus 2736; test: as above; type: cell-based; settings: 24-hour incubation
[15] = tested on: powdery mildew disease in bean plants; test: Plant disease test, spray; type: in vivo; settings: 400 ppm as a spray
Source text: The A-32887 compounds are also useful in the treatment of certain plant diseases.

[16] = tested on: Bacteriodes fragilis ssp fragilis 1877; test: Standard agar-dilution assay, anaerobic bacteria, Table IX; type: cell-based; settings: 24-hour incubation
[17] = tested on: Fusobacterium necrophorum; test: as above; type: cell-based; settings: 24-hour incubation
[18] = tested on: E. tenella AND E. acervulina; test: Anticoccidial feeding test in chicks, E. tenella and E. acervulina (Table XII); type: in vivo; design: Average Lesion Score, Intestinal / Average Lesion Score, Cecal: scale not given here; settings: for Percent Mortality: due to coccidiosis; for Percent Weight Gain: normal controls = 100%
Protocol: ^1 6 replicates; 5 birds each
^2 Infection inoculum 48 hours post-medication onset

CO[C@H]1CC[C@H](OC2[C@@H](C)[C@@](C)(O)O[C@H]([C@H]3CC[C@H]([C@@H]4CC[C@H]([C@@]5(C)O[C@]6(O[C@H](C[C@@H]7O[C@](O)([C@@H](O)C(=O)O)[C@@H](C)[C@H](OC)[C@@]7(C)OC)C[C@@H](OC)[C@H]6C)[C@H](C)[C@H]5OC)O4)O3)[C@H]2C)O[C@@H]1C.[K+].[Na+] (stereo partly shown) [A-32887 (Na-K salt)]
MIC [1]: 50.00 µg/mL | MIC (Eubacterium aerofaciens): ≤ 0.5 µg/mL | MIC [2]: 32 µg/mL | MIC (Clostridium septicum): ≤ 0.5 µg/mL | MIC (Actinomyces israelii): ≤ 0.5 µg/mL | MIC [3]: 2 µg/mL | MIC (Bacteriodes vulgatis): 4 µg/mL | MIC [4]: ≤ 0.5 µg/mL | insecticidal activity (Mexican bean beetle): active | insecticidal activity (housefly): active | insecticidal activity (Southern armyworm): active | Zone of Inhibition ([5]; 30 mcg/disc): 13.7 mm | Zone of Inhibition ([5]; 300 mcg/disc): 14.7 mm | Zone of Inhibition ([6]; 30 mcg/disc): 12.0 mm | Zone of Inhibition ([6]; 300 mcg/disc): 15.6 mm | Zone of Inhibition (Diplococcus pneumoniae; 30 mcg/disc): 16.0 mm | Zone of Inhibition (Diplococcus pneumoniae; 300 mcg/disc): 18.0 mm | Zone of Inhibition ([7]; 30 mcg/disc): 14.0 mm | Zone of Inhibition ([7]; 300 mcg/disc): 17.5 mm | MIC [8]: ≤ 0.5 µg/mL | Zone of Inhibition ([9]; 30 mcg/disc): 12.7 mm | Zone of Inhibition ([9]; 300 mcg/disc): 16.0 mm | Molar % Butyrate [10]: 9.6 Molar % | Total VFA [10]: 79.6 mM/l. | MIC (Clostridium perfringens): ≤ 0.5 µg/mL | MIC [11]: 1.0 µg/mL | Average Lesion Score, Cecal ([12]; 25 ppm): 3.9 | Average Lesion Score, Intestinal ([12]; 25 ppm): 1.1 | Percent Mortality ([12]; 25 ppm): 35% | Percent Weight Gain ([12]; 25 ppm): 57% | Average Lesion Score, Cecal ([12]; 50 ppm): 3.8 | Average Lesion Score, Intestinal ([12]; 50 ppm): 1.8 | Percent Mortality ([12]; 50 ppm): 0% | Percent Weight Gain ([12]; 50 ppm): 79% | Average Lesion Score, Cecal ([12]; 75 ppm): 2.0 | Average Lesion Score, Intestinal ([12]; 75 ppm): 0.9 | Percent Mortality ([12]; 75 ppm): 0% | Percent Weight Gain ([12]; 75 ppm): 90% | Average Lesion Score, Cecal ([12]; 100 ppm): 0.1 | Average Lesion Score, Intestinal ([12]; 100 ppm): 0 | Percent Mortality ([12]; 100 ppm): 0% | Feed/Gain ([12]; 100 ppm, pens without deaths only): 1.50 | Percent Weight Gain ([12]; 100 ppm): 93% | MIC (Bacteriodes corrodens): 2 µg/mL | mortality and number of lesions in challenged chicks (coccidia): decreases mortality and the number of lesions | MIC (Peptococcus prevoti): ≤ 0.5 µg/mL | MIC [13]: 2 µg/mL | MIC [14]: 2 µg/mL | inhibition of powdery mildew disease [15]: inhibits powdery mildew disease | MIC [16]: 2 µg/mL | MIC [17]: 32 µg/mL | Average Lesion Score, Cecal ([18]; 62 ppm): 0.1 | Average Lesion Score, Intestinal ([18]; 62 ppm): 0.9 | Percent Mortality ([18]; 62 ppm): 0% | Percent Weight Gain ([18]; 62 ppm): 97% | Average Lesion Score, Cecal ([18]; 77 ppm): 0 | Average Lesion Score, Intestinal ([18]; 77 ppm): 0.7 | Percent Mortality ([18]; 77 ppm): 0% | Percent Weight Gain ([18]; 77 ppm): 90% | Average Lesion Score, Cecal ([18]; 100 ppm): 0.1 | Average Lesion Score, Intestinal ([18]; 100 ppm): 0.6 | Percent Mortality ([18]; 100 ppm): 0% | Percent Weight Gain ([18]; 100 ppm): 85% | Average Lesion Score, Cecal ([18]; 121 ppm): 0 | Average Lesion Score, Intestinal ([18]; 121 ppm): 0.3 | Percent Mortality ([18]; 121 ppm): 0% | Percent Weight Gain ([18]; 121 ppm): 73%
